Measured values taken from ChEMBL document CHEMBL3425444, “Discovery of piperidin-4-yl-aminopyrimidine derivatives as potent non-nucleoside HIV-1 reverse transcriptase inhibitors” (Eur J Med Chem, 2015).

What was measured:
[1] = tested on: Human immunodeficiency virus 1; test: Antiviral activity against wild type HIV1 3B infected in human MT4 cells assessed as protection from virus-induced cytopathicity after 4 days by MTT assay; assay type: functional, organism-based; details: Human immunodeficiency virus 1, 3B, MT4, 96 h
[2] = tested on: Human immunodeficiency virus 2; test: Antiviral activity against HIV-2 ROD infected in human MT4 cells assessed as protection from virus-induced cytopathicity after 4 days by MTT assay; assay type: functional, organism-based; details: Human immunodeficiency virus 2, ISOLATE ROD, MT4, 96 h
[3] = Cytotoxicity against human MT4 cells assessed as reduction of cell viability after 4 days by MTT assay; assay type: cell-based
[4] = Retention time of the compound by HPLC analysis; assay type: physicochemical
[5] = Selectivity index, ratio of CC50 for human MT4 cells to EC50 for HIV1 3B infected in human MT4 cells; assay type: toxicity, cell-based; details: HIV1 3B infected MT4 cells, read-out: Selectivity Index
[6] = tested on: Human immunodeficiency virus 1; test: Antiviral activity against HIV-1 RES056 harboring reverse transcriptase K103N/Y181C double mutant infected in human MT4 cells assessed as protection from virus-induced cytopathicity after 4 days by MTT assay; assay type: functional, organism-based; details: Human immunodeficiency virus 1, RES056, MT4, 96 h
[7] = target: Human immunodeficiency virus type 1 reverse transcriptase (Human immunodeficiency virus 1, UniProt Q72547); test: Inhibition of HIV1 recombinant wild type reverse transcriptase p66/p51 assessed as reduction in biotin-labeled dUTP incorporation into DNA using polyr(A) x oligo(dT)16 template/primer hybrid

Compound	EC50 [1]	EC50 [2]	CC50 at 96 h [3]	Retention_time [4]	selectivity ratio [5]	EC50 [6]	IC50 [7]
Cc1ccc(NC(=O)CN2CCC(Nc3nccc(Oc4c(C)cc(C#N)cc4C)n3)CC2)cc1C	0.0085 µM	> 1.51 µM	1.51 µM	12.21 min	177	> 1.51 µM	–
Cc1cc(C#N)cc(C)c1Oc1ccnc(NC2CCN(CC(=O)Nc3ccc(F)cc3)CC2)n1	0.0042 µM	> 1.81 µM	1.81 µM	10.85 min	431	> 1.81 µM	0.204 µM
Cc1cc(C#N)cc(C)c1Oc1ccnc(NC2CCN(CC(=O)Nc3cccc([N+](=O)[O-])c3)CC2)n1	0.0078 µM	> 0.379 µM	≥ 0.379 µM	11.49 min	≥ 49	> 0.379 µM	0.156 µM
Cc1cc(C#N)cc(C)c1Oc1nc(Nc2ccc(C#N)cc2)nc(N)c1Br [ETRAVIRINE]	–	–	> 4.59 µM	–	> 1120	0.0253 µM	–
COc1ccc(NC(=O)CN2CCC(Nc3nccc(Oc4c(C)cc(C#N)cc4C)n3)CC2)cc1	0.0035 µM	> 1.56 µM	1.56 µM	10.82 min	446	> 1.56 µM	–
Cc1cc(C#N)cc(C)c1Oc1ccnc(NC2CCN(CC(=O)Nc3ccccc3[N+](=O)[O-])CC2)n1	0.0419 µM	> 59.3 µM	59.3 µM	11.75 min	1420	> 59.3 µM	0.193 µM
O=C1Nc2ccc(Cl)cc2[C@@](C#CC2CC2)(C(F)(F)F)O1 [EFAVIRENZ]	0.0063 µM	–	> 6.34 µM	–	–	–	–
Cc1cc(C#N)cc(C)c1Oc1ccnc(NC2CCN(CC(=O)Nc3ccccc3Cl)CC2)n1	0.0346 µM	> 1.51 µM	1.51 µM	12.14 min	44	> 1.51 µM	–
Cc1ccc(NC(=O)CN2CCC(Nc3nccc(Oc4c(C)cc(C#N)cc4C)n3)CC2)cc1	0.0055 µM	> 2.02 µM	2.02 µM	11.29 min	367	> 2.02 µM	0.181 µM
Cc1ccccc1NC(=O)CN1CCC(Nc2nccc(Oc3c(C)cc(C#N)cc3C)n2)CC1	0.0616 µM	> 1.25 µM	1.25 µM	11.33 min	20	> 1.25 µM	–
Cc1cc(C#N)cc(C)c1Oc1ccnc(NC2CCN(CC(=O)Nc3c(Cl)cc(Cl)cc3Cl)CC2)n1	≥ 0.304 µM	> 1.5 µM	1.5 µM	11.85 min	≤ 5	> 1.5 µM	–
Cc1cc(C#N)cc(C)c1Oc1ccnc(NC2CCN(CC(=O)Nc3ccc([N+](=O)[O-])cc3)CC2)n1	0.0058 µM	> 0.518 µM	0.518 µM	11.13 min	89	> 0.518 µM	0.136 µM
Cc1cc(C#N)cc(C)c1Oc1ccnc(NC2CCN(CC(=O)Nc3cccc(F)c3)CC2)n1	0.0061 µM	> 1.41 µM	1.41 µM	11.41 min	231	> 1.41 µM	–
Cc1cc(C#N)cc(C)c1Oc1ccnc(NC2CCN(CC(=O)Nc3ccc(Cl)cc3Cl)CC2)n1	0.118 µM	> 1.75 µM	1.75 µM	13.21 min	15	> 1.75 µM	–
Cc1cc(C)cc(NC(=O)CN2CCC(Nc3nccc(Oc4c(C)cc(C#N)cc4C)n3)CC2)c1	0.0149 µM	> 2.31 µM	2.31 µM	12.18 min	155	> 2.31 µM	–
CC(C)Nc1cccnc1N1CCN(C(=O)c2cc3cc(NS(C)(=O)=O)ccc3[nH]2)CC1 [DELAVIRDINE]	–	–	> 43.8 µM	–	> 67	> 43.8 µM	–
Cc1cc(C#N)cc(C)c1Oc1ccnc(NC2CCN(CC(=O)Nc3ccc(C#N)cc3F)CC2)n1	0.008 µM	> 1.96 µM	1.96 µM	11.27 min	245	> 1.96 µM	0.174 µM
Cc1cccc(NC(=O)CN2CCC(Nc3nccc(Oc4c(C)cc(C#N)cc4C)n3)CC2)c1	0.0066 µM	> 1.68 µM	1.68 µM	11.43 min	254	> 1.68 µM	–
Cc1cc(C#N)cc(C)c1Oc1ccnc(NC2CCN(CC(=O)Nc3ccc(Cl)cc3)CC2)n1	0.0061 µM	> 0.998 µM	0.998 µM	11.62 min	164	> 0.998 µM	–
Cc1cc(C#N)cc(C)c1Oc1ccnc(NC2CCN(CC(=O)Nc3ccc(S(N)(=O)=O)cc3)CC2)n1	0.0019 µM	> 1.61 µM	1.61 µM	9.11 min	845	> 1.61 µM	0.116 µM
Cc1cc(C#N)cc(C)c1Oc1ccnc(NC2CCN(CC(=O)Nc3ccc(Cl)c(Cl)c3)CC2)n1	0.0209 µM	> 1.28 µM	1.28 µM	12.62 min	61	> 1.28 µM	–
Cc1cc(C#N)cc(C)c1Oc1ccnc(NC2CCN(CC(=O)Nc3cc(Cl)cc(Cl)c3)CC2)n1	0.0761 µM	> 3.52 µM	3.52 µM	13.08 min	46	> 3.52 µM	–
Cc1cc(C#N)cc(C)c1Oc1ccnc(NC2CCN(CC(=O)Nc3ccccc3F)CC2)n1	0.007 µM	> 119 µM	119 µM	11.43 min	16900	> 119 µM	0.207 µM
Cc1cc(C#N)cc(C)c1Oc1ccnc(NC2CCN(CC(=O)Nc3ccccc3)CC2)n1	0.0033 µM	> 1.82 µM	1.82 µM	10.9 min	551	> 1.82 µM	0.199 µM
Cc1cc(C#N)cc(C)c1Oc1ccnc(NC2CCN(CC(=O)Nc3ccc(C#N)cc3)CC2)n1	0.0029 µM	> 0.602 µM	0.602 µM	10.72 min	208	> 0.602 µM	–
Cc1cc(C#N)cc(C)c1Oc1ccnc(NC2CCN(CC(=O)Nc3ccc(O)cc3)CC2)n1	0.0021 µM	> 2.18 µM	2.18 µM	10.25 min	1040	> 2.18 µM	0.102 µM
Cc1cc(C#N)cc(C)c1Oc1ccnc(NC2CCN(CC(=O)Nc3ccc(Br)cc3)CC2)n1	0.0062 µM	> 1.48 µM	1.48 µM	11.85 min	238	> 1.48 µM	–
Cc1cc(S(N)(=O)=O)ccc1NC(=O)CN1CCC(Nc2nccc(Oc3c(C)cc(C#N)cc3C)n2)CC1	0.0053 µM	> 1.64 µM	1.64 µM	9.61 min	309	> 1.64 µM	0.166 µM
Cc1cc(C#N)cc(C)c1Oc1ccnc(NC2CCN(CC(=O)Nc3cccc(Cl)c3)CC2)n1	0.0059 µM	> 1.26 µM	1.26 µM	11.95 min	214	> 1.26 µM	–
